What was measured:
[1] = tested on: transgenic corn plants, Arabidopsis I393L L385V, event SDM-71855; test: Greenhouse testing of transgenic corn plants, Arabidopsis I393L L385V; format: in vivo, Zea mays; conditions: corn SDM-71855, 5 days after herbicide treatment, average of 8 T1
Text: (§1) Various methods for the production of stably transformed plants are well known in the art. Coumarone-derivative herbicide tolerant soybean (Glycine max) or corn (Zea mays) plants can be produced by a method described by Olhoft et al. (US patent 2009/0049567). Briefly, HPPD or HST encoding polynucleotides are cloned into a binary vector using standard cloning techniques as described by Sambrook et al. (Molecular cloning (2001) Cold Spring Harbor Laboratory Press). The final vector construct contains an HPPD or HST encoding sequence flanked by a promoter sequence (e.g. the ubiquitin promoter (PcUbi) sequence) and a terminator sequence (e.g. the nopaline synthase terminator (NOS) sequence) and a resistance marker gene cassette (e.g. AHAS) (FIG. 2). Optionally, the HPPD or HST gene can provide the means of selection. Agrobacterium-mediated transformation is used to introduce the DNA into soybean's axillary meristem cells at the primary node of seedling explants. After inoculation and co-cultivation with Agrobacteria, the explants are transferred to shoot induction medium without selection for one week. The explants are subsequently transferred to shoot induction medium with 1-3 μM imazapyr (Arsenal) for 3 weeks to select for transformed cells. Explants with healthy callus/shoot pads at the primary node are then transferred to shoot elongation medium containing 1-3 μM imazapyr until a shoot elongates or the explant dies. After regeneration, transformants are transplanted to soil in small pots, placed in growth chambers (16 hr day/8 hr night; 25° C. day/23° C. night; 65% relative humidity; 130-150 mE m−2 s−1) and subsequently tested for the presence of the T-DNA via Taqman analysis. After a few weeks, healthy, transgenic positive, single copy events are transplanted to larger pots and allowed to grow in the growth chamber. Transformation of corn plants is done by a method described by McElver and Singh (WO 2008/124495). Plant transformation vector constructs containing HPPD or HST sequences are introduced into maize immature embryos via Agrobacterium-mediated transformation. Transformed cells are selected in selection media supplemented with 0.5-1.5 μM imazethapyr for 3-4 weeks. Transgenic plantlets are regenerated on plant regeneration media and rooted afterwards. Transgenic plantlets are subjected to TaqMan analysis for the presence of the transgene before being transplanted to potting mixture and grown to maturity in greenhouse. Arabidopsis thaliana is transformed with HPPD or HST sequences by floral dip method as described by McElver and Singh (WO 2008/124495). Transgenic Arabidopsis plants are subjected to Tag Man analysis for analysis of the number of integration loci. Transformation of Oryza sativa (rice) are done by protoplast transformation as described by Peng et al. (U.S. Pat. No. 6,653,529)
(§2) Transgenic plants expressing heterologous HPPD or HST enzymes are tested for tolerance against coumarone-derivative herbicides in greenhouse experiments.
(§3) For post emergence treatment, the test plants are first grown to a height of 3 to 15 cm, depending on the plant habit, and only then treated with the herbicides. For this purpose, the test plants are either sown directly and grown in the same containers, or they are first grown separately and transplanted into the test containers a few days prior to treatment.
(§4) Depending on the species, the plants are kept at 10-25° C. or 20-35° C. The test period extends over 3 weeks. During this time, the plants are tended and their response to the individual treatments is evaluated. […] Tolerance to coumarone-derivative herbicides can also be assessed in Arabidopsis. In this case transgenic Arabidopsis thaliana plants are assayed for improved tolerance to coumarone-derivative herbicides in 48-well plates. Seeds are surface sterilized by stirring for 5 min in ethanol+water (70+30 by volume), rinsing one time with ethanol+water (70+30 by volume) and two times with a sterile, deionized water. […]

[2] = tested on: transgenic soybean plants, Arabidopsis P336A E363Q I393L L385V, event SDS-9999; test: Greenhouse testing of transgenic soybean plants, Arabidopsis P336A E363Q I393L L385V; format: in vivo, Glycine max; conditions: soybean SDS-9999, 5 days after herbicide treatment, average of 8 T1
Text: as §1, §2, §3, §4

[3] = tested on: transgenic soybean plants, Arabidopsis HPPD, event SDS-9857; test: Greenhouse testing of transgenic soybean plants, Arabidopsis HPPD; format: in vivo, Glycine max; conditions: soybean SDS-9857, 5 days after herbicide treatment, average of 8 T1
Text: as §1, §2, §3
as §4, with “The test period extends over 3 weeks.” left out

## Cc1c(C(=O)c2cnn(C)c2O)ccc(S(C)(=O)=O)c1C1=NOCC1 [Topramezone, reference compound]
[1]; 6.25 g/ha
  Injury evaluation, scale of 1-100, bleaching phenotype: 0
[1]; 25 g/ha
  Injury evaluation, scale of 1-100, bleaching phenotype: 0
[1]; 100 g/ha
  Injury evaluation, scale of 1-100, bleaching phenotype: 4
[2]; 6.25 g/ha
  Injury evaluation, scale of 1-100, bleaching phenotype: 7
[2]; 25 g/ha
  Injury evaluation, scale of 1-100, bleaching phenotype: 18
[2]; 100 g/ha
  Injury evaluation, scale of 1-100, bleaching phenotype: 24
[3]; 6.25 g/ha
  Injury evaluation, scale of 1-100, bleaching phenotype: 1
[3]; 25 g/ha
  Injury evaluation, scale of 1-100, bleaching phenotype: 10
[3]; 100 g/ha
  Injury evaluation, scale of 1-100, bleaching phenotype: 19

## CC1(C)c2cccnc2C(O)=C(c2ccc(Cl)nc2Cl)S1(=O)=O [Inhibitor 2, 7-(2,6-dichloro-3-pyridyl)-5,5-dimethyl-6,6-dioxo-thiopyrano[4,3-b]pyridin-8-ol]
[1]; 2.5 g/ha
  Injury evaluation, scale of 1-100, bleaching phenotype: 7
[1]; 10 g/ha
  Injury evaluation, scale of 1-100, bleaching phenotype: 7
[1]; 40 g/ha
  Injury evaluation, scale of 1-100, bleaching phenotype: 25
[2]; 2.5 g/ha
  Injury evaluation, scale of 1-100, bleaching phenotype: 6
[2]; 10 g/ha
  Injury evaluation, scale of 1-100, bleaching phenotype: 5
[2]; 40 g/ha
  Injury evaluation, scale of 1-100, bleaching phenotype: 15
[3]; 2.5 g/ha
  Injury evaluation, scale of 1-100, bleaching phenotype: 1
[3]; 10 g/ha
  Injury evaluation, scale of 1-100, bleaching phenotype: 1
[3]; 40 g/ha
  Injury evaluation, scale of 1-100, bleaching phenotype: 2

Reference: patent publication US20140357487A1, “PLANTS HAVING INCREASED TOLERANCE TO HERBICIDES” (BASF SE, priority 2011, published 2014)
